The values that follow come from patent publication US7759326B2, “Aminophosphonic acid derivative, salt thereof, and modulator of S1P receptor” (Kyorin Pharmaceutical Co., Ltd., priority 2003, dated 2010).

Counter-ions that a name gives are not always drawn.

One data set concerns the target T1, hS1P1 receptors (Homo sapiens, UniProt P21453).
T1 construct: expressed in transfected cells; host or cells: CHO cells (Geneticin-selected)
The data set can be described thus: Intracellular Ca2+ mobilization in CHO cells expressing human S1P receptors (hS1P1). Format: cell-based. As to conditions: read-out: S1P1 (EC50 class, intracellular Ca2+ mobilization). How it is done: (§1) Test for the Ability of Test Compounds to Induce Intracellular Ca^2+ Mobilization in Cells Expressing Human S1P (Sphingosine-1-Phosphate) Receptors
(§2) CHO cells expressing human S1P receptors (i.e., CHO cells expressing hS1P1 receptors or hS1P3 receptors) were subcultured on Ham's F-12 medium supplemented with 10% fetal bovine serum and 200 μg/mL Geneticin. The cells were seeded on a 96-well black clear bottom plate (COSTAR) at 4×10^4 cells/well and were cultured overnight at 37° C. in 5% CO2. A fluorescent reagent that emits fluorescence upon binding to Ca^2+ (Calcium Screening Kit (DOJINDO)) was added to the culture and the cells were further cultured for 60 min at 37° C. in 5% CO2. After culturing, microplate spectrofluorometer (FLEX station, MOLECULAR DEVICE) was used to measure the fluorescence intensity at an excitation wavelength of 485 nm and a detection wavelength of 525 nm. S1P or a test compound adjusted with cultural medium to a concentration 10 times higher than the final concentration (final DMSO concentration=0.1%). Each test compound solution was added 18 sec. after beginning of the measurement of fluorescence. The fluorescence intensity was measured every 1.5 sec for 100 sec. For each test compound, the difference between the maximum fluorescence intensity and the minimum fluorescence intensity (i.e., increase in fluorescence) was determined from the measurements. The rate of fluorescence increase (%) for each test compound was calculated by the difference (100%) of the fluorescence increase between solvent only and S1P (10^−6M). Using this value as an index of the ability of the test compound to induce intracellular Ca^2+ mobilization, EC50 was determined by PRISM software (GraphPad).
Background: A change in cytosolic calcium serves as a functional read-out for many receptors and channels.

The target in another data set is T2, hS1P3 receptors (Homo sapiens, UniProt Q99500).
T2 construct: expressed in transfected cells; host or cells: CHO cells (Geneticin-selected)
The data set can be described thus: Intracellular Ca2+ mobilization in CHO cells expressing human S1P receptors (hS1P3). In kind it is cell-based. As to conditions: read-out: S1P3 (EC50 class, intracellular Ca2+ mobilization). How it is done:
as §1, §2

T1 sequence (P21453 whole entry): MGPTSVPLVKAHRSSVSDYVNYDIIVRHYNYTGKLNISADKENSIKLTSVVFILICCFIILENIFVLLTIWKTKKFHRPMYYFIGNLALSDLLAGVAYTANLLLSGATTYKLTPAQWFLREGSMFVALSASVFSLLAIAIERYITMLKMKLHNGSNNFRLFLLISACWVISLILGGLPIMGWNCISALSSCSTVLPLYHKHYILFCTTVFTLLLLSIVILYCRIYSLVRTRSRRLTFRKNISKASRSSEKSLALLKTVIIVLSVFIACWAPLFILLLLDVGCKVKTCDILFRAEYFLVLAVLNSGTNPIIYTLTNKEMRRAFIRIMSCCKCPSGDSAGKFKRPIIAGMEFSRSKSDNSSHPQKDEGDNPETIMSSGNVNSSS
T2 sequence (Q99500 whole entry): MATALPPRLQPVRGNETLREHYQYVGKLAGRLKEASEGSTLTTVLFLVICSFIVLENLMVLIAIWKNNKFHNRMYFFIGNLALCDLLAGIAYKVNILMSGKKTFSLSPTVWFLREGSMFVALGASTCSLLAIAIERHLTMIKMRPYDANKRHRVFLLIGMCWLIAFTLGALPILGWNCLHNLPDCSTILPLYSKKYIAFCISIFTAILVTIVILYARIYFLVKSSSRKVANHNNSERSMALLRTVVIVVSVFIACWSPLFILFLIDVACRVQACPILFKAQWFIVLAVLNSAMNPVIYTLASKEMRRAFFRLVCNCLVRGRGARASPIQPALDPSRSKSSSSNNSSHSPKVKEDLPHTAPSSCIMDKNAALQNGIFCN

For orientation: EC50 means the concentration that produces a half-maximal response. On to `NC(CO)(CCCc1ccc(Oc2cccc(C(F)(F)F)c2)cc1Cl)CCP(=O)(O)O` (stereo not drawn) [Example 296, 3-amino-6-[2-chloro-4-(3-trifluoromethylphenoxy)phenyl]-3-hydroxymethylhexylphosphonic acid], for which the results for the EC50 at hS1P1 receptors and on hS1P3 receptors were 0.01 to 0.1 µM and no less than 1 µM, respectively.

In general, melting point refers to the temperature of the solid-liquid transition. `NC(/C=C/P(=O)(O)O)(CO)CCCCc1ccc(Sc2cccc(OCc3ccccc3)c2)cc1Cl` (stereo not drawn) [Example 290, 3-amino-[4-(3-benzyloxyphenylthio)-2-chlorophenyl]-3-hydroxymethyl-1-heptenylphosphonic acid]: the melting point was 258 to 260 °C. The EC50 at hS1P1 receptors is less than 0.01 µM. Moreover, the EC50 on hS1P3 receptors is 0.01 to 0.1 µM.

On to `NC(CO)(CCc1ccc(Sc2cccc(OCc3ccccc3)c2)cc1Cl)CCP(=O)(O)O` (stereo not drawn) [Example 269, 3-amino-5-[4-(3-benzyloxyphenylthio)-2-chlorophenyl]-3-hydroxymethylpentylphosphonic acid], for which the melting point lay in the range of 205 to 208 °C. Moreover, the concentration for a half-maximal effect (EC50) at hS1P1 receptors is 0.01 to 0.1 µM. Besides, the EC50 on hS1P3 receptors was no less than 1 µM.

For the compound `CC(N)(CCc1ccc(Sc2cccc(OCc3ccccc3)c2)cc1Cl)COP(=O)(O)O` (single isomer, unassigned; (+)) [Example 249, (+)-2-amino-4-[4-(3-benzyloxyphenylthio)-2-chlorophenyl]-2-methylbutylphosphonate monoester], the EC50 was 0.01 to 0.1 µM on hS1P1 receptors and less than 0.01 µM on hS1P3 receptors.

For the compound `NC(CO)(CCc1ccc(Sc2ccc(OCc3ccccc3)cc2)cc1Cl)CCP(=O)(O)O` (stereo not drawn) [Example 308, 3-amino-5-[4-(4-benzyloxyphenylthio)-2-chlorophenyl]-3-hydroxymethylpentylphosphonic acid], the EC50 on hS1P1 receptors was 0.1 to 1 µM; on hS1P3 receptors, no less than 1 µM.

Regarding `CCCC(N)(CCCc1ccc(Sc2cccc(OCc3ccccc3)c2)cc1Cl)CCP(=O)(O)O` (stereo not drawn) [Example 284, 3-amino-6-[4-(3-benzyloxyphenylthio)-2-chlorophenyl]-3-propylhexylphosphonic acid], the EC50 on hS1P1 receptors is 0.01 to 0.1 µM; on hS1P3 receptors it was 0.1 to 1 µM.

The compound `Cl.NC(CO)(CCCc1ccc(Sc2cccc(OCc3ccccc3)c2)cc1Cl)CP(=O)(O)O` (stereo not drawn) [Example 286, 2-amino-5-[4-(3-benzyloxyphenylthio)-2-chlorophenyl]-2-hydroxymethylpentylphosphonate hydrochloride] registered a melting point of 98 to 101 °C. The concentration giving a half-maximal response (EC50) on hS1P1 receptors fell in the range of 0.01 to 0.1 µM. Also, the EC50 at hS1P3 receptors was no less than 1 µM.

In turn, `NC(/C=C(/F)P(=O)(O)O)CCc1ccc(Sc2cccc(OCc3ccccc3)c2)cc1Cl` (stereo not drawn) [Example 253, (Z)-3-amino-5-[4-(3-benzyloxyphenylthio)-2-chlorophenyl]-1-fluoro-1-pentenylphosphonic acid] yielded a melting point of 285 to 288 °C. Further, the EC50 at hS1P1 receptors was 0.1 to 1 µM. In addition, the concentration giving a half-maximal response (EC50) on hS1P3 receptors lay within 0.1 to 1 µM.

As for `NC(CO)(CCCc1ccc(Oc2cccc(C(F)(F)F)c2)cc1Cl)COP(=O)(O)O` (stereo not drawn) [Example 300], the values for the EC50 on hS1P1 receptors and at hS1P3 receptors were 0.01 to 0.1 µM and no less than 1 µM, respectively.

In the case of `NC(CO)(CCCCc1ccc(Sc2cccc(OCc3ccccc3)c2)cc1Cl)CCP(=O)(O)O` (stereo not drawn) [Example 289, 3-amino-[4-(3-benzyloxyphenylthio)-2-chlorophenyl]-3-hydroxymethylheptylphosphonic acid], the melting point was in the range of 180 to 183 °C.

In the case of `CC(N)(/C=C/P(=O)(O)O)CCCc1ccc(Sc2cccc(OCc3ccccc3)c2)cc1Cl` (racemic) [Example 261, 3-amino-6-[4-(3-benzyloxyphenylthio)-2-chlorophenyl]-3-methyl-1-hexenylphosphonic acid], the melting point lay in the range of 243 to 245 °C. Further, the EC50 at hS1P1 receptors fell in the range of 0.1 to 1 µM. The EC50 at hS1P3 receptors is no less than 1 µM.

`NC(CO)(CCCc1ccc(Sc2cccc(C(F)(F)F)c2)cc1Cl)COP(=O)(O)O` (stereo not drawn) [Example 299, 2-amino-5-[2-chloro-4-(3-trifluoromethylphenylthio)phenyl]-2-hydroxymethylpentylphosphonate monoester]: the EC50 at hS1P1 receptors is 0.01 to 0.1 µM; at hS1P3 receptors, no less than 1 µM.

For `CCCC(N)(/C=C/P(=O)(O)O)CCCc1ccc(Sc2cccc(OCc3ccccc3)c2)cc1Cl` (stereo not drawn) [Example 283, 3-amino-6-[4-(3-benzyloxyphenylthio)-2-chlorophenyl]-3-propyl-1-hexenylphosphonic acid], the EC50 at hS1P1 receptors and on hS1P3 receptors was 0.01 to 0.1 µM throughout.

`NC(/C=C/P(=O)(O)O)(CO)CCCc1ccc(Sc2cccc(OCc3ccccc3)c2)cc1Cl` (stereo not drawn) [Example 263, 3-amino-[4-(3-benzyloxyphenylthio)-2-chlorophenyl]-3-hydroxymethyl-1-hexenylphosphonic acid]: the melting point is 243 to 246 °C. Further, the EC50 at hS1P1 receptors is less than 0.01 µM. In addition, the EC50 at hS1P3 receptors fell in the range of 0.1 to 1 µM.

The compound `NC(CO)(CCCc1ccc(Sc2cccc(OCc3ccccc3)c2)cc1Cl)CCP(=O)(O)O` (stereo not drawn) [Example 265, 3-amino-6-[4-(3-benzyloxyphenylthio)-2-chlorophenyl]-3-hydroxymethylhexylphosphonic acid] yielded a melting point of 193 to 196 °C. Also, the EC50 on hS1P1 receptors is less than 0.01 µM. Moreover, the EC50 at hS1P3 receptors lay within 0.1 to 1 µM.

Regarding `CC(N)(CCCc1ccc(Sc2cccc(OCc3ccccc3)c2)cc1Cl)CCP(=O)(O)O` (stereo not drawn) [Example 260, 3-amino-6-[4-(3-benzyloxyphenylthio)-2-chlorophenyl]-3-methylhexylphosphonic acid], the melting point lay within 195 to 197 °C. Further, on hS1P1 receptors, the EC50 lay within 0.01 to 0.1 µM. The EC50 on hS1P3 receptors was 0.1 to 1 µM.

For `CC(N)(CCCc1ccc(Sc2cccc(OCc3ccccc3)c2)cc1Cl)COP(=O)(O)O` (single isomer, unassigned; (-)) [Example 240, (−)-2-amino-5-[4-(3-benzyloxyphenylthio)-2-chlorophenyl]-2-methylpentylphosphonate monoester], the melting point is 200 to 203 °C. Moreover, the EC50 on hS1P1 receptors was in the range of 0.01 to 0.1 µM. Besides, the EC50 at hS1P3 receptors fell in the range of 0.1 to 1 µM.

Turning to `NC(/C=C(\F)P(=O)(O)O)CCc1ccc(Sc2cccc(OCc3ccccc3)c2)cc1Cl` (stereo not drawn) [Example 254, (E)-3-amino-5-[4-(3-benzyloxyphenylthio)-2-chlorophenyl]-1-fluoro-1-pentenylphosphonic acid], the melting point is 288 to 290 °C. Besides, the EC50 at hS1P1 receptors lay in the range of 0.01 to 0.1 µM. Moreover, the concentration giving a half-maximal response (EC50) on hS1P3 receptors is no less than 1 µM.

Regarding `NC(CO)(CCCc1ccc(Sc2cccc(OCc3ccccc3)c2)cc1Cl)C(O)C(F)(F)P(=O)(O)O` (stereo not drawn) [Example 293, 3-amino-6-[4-(3-benzyloxyphenylthio)-2-chlorophenyl]-1,1-difluoro-2-hydroxy-3-hydroxymethylhexylphosphonic acid], the EC50 at hS1P1 receptors and at hS1P3 receptors was 0.1 to 1 µM throughout.

Consider `CCCC(N)(/C=C/P(=O)(OC)OC)CCCc1ccc(Sc2cccc(OCc3ccccc3)c2)cc1Cl` (stereo not drawn) [Example 280, Dimethyl 3-amino-6-[4-(3-benzyloxyphenylthio)-2-chlorophenyl]-3-propyl-1-hexenylphosphonate hydrochloride], for which the EC50 at hS1P1 receptors and at hS1P3 receptors was 0.1 to 1 µM each time.

Consider `CC(N)(CCc1ccc(Sc2cccc(OCc3ccccc3)c2)cc1Cl)COP(=O)(O)O` (single isomer, unassigned; (-)) [Example 250, (−)-2-amino-4-[4-(3-benzyloxyphenylthio)-2-chlorophenyl]-2-methylbutylphosphonate monoester], for which the EC50 is 0.1 to 1 µM at hS1P1 receptors and no less than 1 µM on hS1P3 receptors.

Regarding `NC(/C=C/P(=O)(O)O)(CO)CCc1ccc(Sc2cccc(OCc3ccccc3)c2)cc1Cl` (stereo not drawn) [Example 267, 3-amino-5-[4-(3-benzyloxyphenylthio)-2-chlorophenyl]-3-hydroxymethyl-1-pentenylphosphonic acid], the melting point lay within 245 to 248 °C. Further, the EC50 on hS1P1 receptors is less than 0.01 µM. Further, the EC50 at hS1P3 receptors was no less than 1 µM.
